target: T1, human CRHR2-alpha (Homo sapiens, UniProt Q13324); test: cAMP functional assay for human CRHR2 (LANCE Ultra cAMP, TR-FRET); assay type: cell-based; conditions: CHO-K1 cells expressing human CRHR2-alpha, agonist human urocortin2 at EC80, cAMP; read-out: IC50 against CRHR2
T1 sequence (Q13324 1-411): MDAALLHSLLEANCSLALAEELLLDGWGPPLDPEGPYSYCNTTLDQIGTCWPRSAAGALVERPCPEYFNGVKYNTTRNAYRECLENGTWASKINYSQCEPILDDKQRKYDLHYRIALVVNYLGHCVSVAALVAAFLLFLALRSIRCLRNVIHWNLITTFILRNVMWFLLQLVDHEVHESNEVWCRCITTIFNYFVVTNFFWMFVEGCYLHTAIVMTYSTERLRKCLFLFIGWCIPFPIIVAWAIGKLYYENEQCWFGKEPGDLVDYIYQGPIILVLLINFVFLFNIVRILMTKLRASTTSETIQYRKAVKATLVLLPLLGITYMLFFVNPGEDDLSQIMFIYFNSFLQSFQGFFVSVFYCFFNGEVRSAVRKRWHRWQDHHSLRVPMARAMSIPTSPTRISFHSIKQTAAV
Procedure, shortened: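 IC50 values derive from percent inhibition of EC80 agonist-stimulated cAMP in CHO-K1 transfectants, with 0.5 mM IBMX present; the CRHR2 line was stimulated by human urocortin2 and the CRHR1 line by CRF.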

Question: For Cc1ncc(Cl)cc1C(=O)N[C@H]1CC[C@H](Cn2c(=O)n(-c3ccc(C(=O)NC4CC4)nc3)c3ccccc32)CC1 [Example 151, 5-(3-(((1r,4r)-4-(5-chloro-2-methylnicotinamido)cyclo-hexyl)methyl)-2-oxo-2,3-dihydro-1H-benzo[d]imidazol-1-yl)-N-cyclopropyl-picolinamide], which IC50 is on record?
Answer: < 300 nM

Question: CNc1cnc(-n2c(=O)n(C[C@H]3CC[C@H](NC(=O)c4cc(Cl)cnc4C)CC3)c3ccccc32)cn1 [Example 115, 5-chloro-2-methyl-N-((1r,4r)-4-((3-(5-(methylamino)pyrazin-2-yl)-2-oxo-2,3-dihydro-1H-benzo [d]imidazol-1-yl)methyl)cyclo-hexyl)nicotinamide] was tested. Which IC50 did it give?
Answer: < 300 nM

Question: Which IC50 does the source give for O=C(N[C@H]1CC[C@H](Cn2c(=O)n(-c3ccc(N[C@H]4CCOC4)nc3)c3ccccc32)CC1)c1cc(Cl)cnc1C(F)(F)F [Example 299, 5-chloro-N-((1S,4r)-4-((2-oxo-3-(6-(((S)-tetrahydro-furan-3-yl)amino)pyridin-3-yl)-2,3-dihydro-1H-benzo [d]imidazol-1-yl)methyl)cyclohexyl)-2-(trifluoro-methyl)nicotinamide] here?
Answer: < 300 nM

Question: With Cc1ncc(Cl)cc1C(=O)N[C@H]1CC[C@H](Cn2c(=O)n(-c3ccc(N4CCOCC4)nc3)c3ccccc32)CC1 [Example 54, 5-chloro-2-methyl-N-((1r,4r)-4-((3-(6-morpholinopyridin-3-yl)-2-oxo-2,3-dihydro-1H-benzo[d]imidazol-1-yl)methyl)cyclohexyl) nicotinamide] as the compound, how does the IC50 read?
Answer: < 300 nM

Question: How did the IC50 turn out when N#Cc1ccncc1-n1c(=O)n(C[C@H]2CC[C@H](NC(=O)c3cc(Cl)cnc3C(F)(F)F)CC2)c2ccccc21 [Example 311, 5-chloro-N-((1r,4r)-4-((3-(4-cyanopyridin-3-yl)-2-oxo-2,3-dihydro-1H-benzo[d]imidazol-1-yl)methyl)cyclo-hexyl)-2-(trifluoromethyl) nicotinamide] was run?
Answer: < 300 nM

Question: For Cc1cc2cc(-n3c(=O)n(C[C@H]4CC[C@H](NC(=O)c5cc(Cl)cnc5C(F)F)CC4)c4cccnc43)cnc2n1C [Example 708, 5-chloro-2-(difluoromethyl)-N-((1r,4r)-4-((3-(1,2-dimethyl-1H-pyrrolo[2,3-b]pyridin-5-yl)-2-oxo-2,3-dihydro-1H-imidazo[4,5-b]pyridin-1-yl)methyl)cyclohexyl)nicotinamide], which IC50 is on record?
Answer: < 300 nM

Question: CNc1ccc(-n2c(=O)n(C[C@H]3CC[C@H](NC(=O)c4cc(Cl)cnc4C(F)(F)F)CC3)c3ccc(F)cc32)cn1 [Example 705, 5-chloro-N-((1r,4r)-4-((5-fluoro-3-(6-(methylamino)pyridin-3-yl)-2-oxo-2,3-dihydro-1H-benzo[d]imidazol-1-yl)methyl)cyclo-hexyl)-2-(trifluoromethyl) nicotinamide] was tested. Which IC50 did it give?
Answer: < 300 nM

Question: Cc1ncc(Cl)cc1C(=O)N[C@H]1CC[C@H](Cn2c(=O)n(-c3ccc(-c4ccn(C)n4)cc3)c3ccccc32)CC1 [Example 447, 5-chloro-2-methyl-N-((1r,4r)-4-((3-(4-(1-methyl-1H-pyrazol-3-yl)phenyl)-2-oxo-2,3-dihydro-1H-benzo[d]imidazol-1-yl)methyl)cyclo-hexyl)nicotinamide] was tested. Which IC50 did it give?
Answer: < 300 nM

Question: For COc1ccc(-n2c(=O)n(C[C@H]3CC[C@H](NC(=O)c4cc(Cl)cnc4C)CC3)c3cccc(C)c32)cn1 [Example 58, 5-chloro-N-((1r,4r)-4-((3-(6-methoxypyridin-3-yl)-4-methyl-2-oxo-2,3-dihydro-1H-benzo[d]imidazol-1-yl)methyl)cyclohexyl)-2-methylnicotinamide], which IC50 is on record?
Answer: < 300 nM

Question: O=C(N[C@H]1CC[C@H](Cn2c(=O)n(-c3cnc4c(ccn4CCO)c3)c3ccccc32)CC1)c1cc(Cl)cnc1C(F)F [Example 666, 5-chloro-2-(difluoromethyl)-N-((1r,4r)-4-((3-(1-(2-hydroxyethyl)-1H-pyrrolo[2,3-b]pyridin-5-yl)-2-oxo-2,3-dihydro-1H-benzo[d]imidazol-1-yl)methyl)cyclohexyl)nicotinamide] was tested. Which IC50 did it give?
Answer: < 300 nM

Question: For N#Cc1ccccc1-n1c(=O)n(C[C@H]2CC[C@H](NC(=O)c3cc(Cl)cnc3C(F)F)CC2)c2ccccc21 [Example 499, 5-chloro-N-((1r,4r)-4-((3-(2-cyanophenyl)-2-oxo-2,3-dihydro-1H-benzo[d]imidazol-1-yl)methyl)cyclo-hexyl)-2-(difluoromethyl) nicotinamide], which IC50 is on record?
Answer: < 300 nM

Question: With CNC(=O)c1ccc(-n2c(=O)n(C[C@H]3CC[C@H](NC(=O)c4cc(Cl)cnc4C(F)F)CC3)c3ccccc32)c(C)n1 [Example 556, 5-(3-(((1r,4r)-4-(5-chloro-2-(difluoromethyl)nicotina-mido)cyclohexyl)methyl)-2-oxo-2,3-dihydro-1H-benzo[d]imidazol-1-yl)-N,6-dimethylpicolinamide] as the compound, how does the IC50 read?
Answer: < 300 nM

Question: How did the IC50 turn out when CNc1ccc(-n2c(=O)n(C[C@H]3CC[C@H](NC(=O)c4cc(Cl)cnc4C(F)(F)F)CC3)c3ccccc32)nc1 [Example 692, 5-chloro-N-((1r,4r)-4-((3-(5-(methylamino)pyridin-2-yl)-2-oxo-2,3-dihydro-1H-benzo[d]imidazol-1-yl)methyl)cyclohexyl)-2-(trifluoromethyl)nicotinamide] was run?
Answer: < 300 nM

Question: For CN1CCN(c2cccc(-n3c(=O)n(C[C@H]4CC[C@H](NC(=O)c5cc(Cl)cnc5C(F)F)CC4)c4ccccc43)n2)C1=O [Example 774, 5-chloro-2-(difluoromethyl)-N-((1r,4r)-4-((3-(6-(3-methyl-2-oxoimidazolidin-1-yl)pyridin-2-yl)-2-oxo-2,3-dihydro-1H-benzo[d]imidazol-1-yl)methyl)cyclohexyl) nicotinamide], which IC50 is on record?
Answer: < 300 nM

Question: Which IC50 does the source give for Cc1ncc(Cl)cc1C(=O)N[C@H]1CC[C@H](Cn2c(=O)n(-c3ccc(-c4cnco4)nc3)c3ccccc32)CC1 [Example 202, 5-chloro-2-methyl-N-((1r,4r)-4-((3-(6-(oxazol-5-yl)pyridin-3-yl)-2-oxo-2,3-dihydro-1H-benzo[d]imidazol-1-yl)methyl)cyclo-hexyl)nicotinamide] here?
Answer: < 300 nM

Question: With Cc1ncc(Cl)cc1C(=O)N[C@H]1CC[C@H](Cn2c(=O)n(-c3ccc(-c4cnn(C)c4)nc3)c3ccccc32)CC1 [Example 214, 5-chloro-2-methyl-N-((1r,4r)-4-((3-(6-(1-methyl-1H-pyrazol-4-yl)pyridin-3-yl)-2-oxo-2,3-dihydro-1H-benzo[d]imidazol-1-yl)methyl)cyclohexyl)nico-tinamide] as the compound, how does the IC50 read?
Answer: < 300 nM

Question: COc1ccc(-n2c(=O)n(C[C@H]3CC[C@H](NC(=O)c4cc(Cl)cnc4C(F)F)CC3)c3cccnc32)cc1F [Example 710, 5-chloro-2-(difluoromethyl)-N-((1r,4r)-4-((3-(3-fluoro-4-methoxyphenyl)-2-oxo-2,3-dihydro-1H-imidazo[4,5-b]pyridin-1-yl)methyl)cyclo-hexyl)nicotinamide] was tested. Which IC50 did it give?
Answer: < 300 nM

Question: For Cc1ncc(Cl)cc1C(=O)N[C@H]1CC[C@H](Cn2c(=O)n(-c3ccn4ccnc4c3)c3ccccc32)CC1 [Example 272, 5-chloro-N-((1r,4r)-4-((3-(imidazo[1,2-a]pyridin-7-yl)-2-oxo-2,3-dihydro-1H-benzo [d]imidazol-1-yl)methyl)cyclohexyl)-2-methyl-nicotinamide], which IC50 is on record?
Answer: < 300 nM

Question: Which IC50 does the source give for Cc1ncc(Cl)cc1C(=O)N[C@H]1CC[C@H](Cn2c(=O)n(-c3ccc(-c4ccc(N)nc4)nc3)c3ccccc32)CC1 [Example 216] here?
Answer: < 300 nM

Question: Which IC50 does the source give for COc1ccc(F)c(-n2c(=O)n(C[C@H]3CC[C@H](NC(=O)c4cc(Cl)cnc4C(F)F)CC3)c3cccnc32)c1 [Example 725, 5-chloro-2-(difluoromethyl)-N-((1r,4r)-4-((3-(2-fluoro-5-methoxyphenyl)-2-oxo-2,3-dihydro-1H-imidazo[4,5-b]pyridin-1-yl)methyl)cyclo-hexyl)nicotinamide] here?
Answer: < 300 nM

Question: For CNC(=O)c1ccc(-n2c(=O)n(C[C@H]3CC[C@H](NC(=O)c4cc(Cl)cnc4N)CC3)c3ccccc32)cn1 [Example 534, 5-(3-(((1r,4r)-4-(2-amino-5-chloronicotinamido)cyclo-hexyl)methyl)-2-oxo-2,3-dihydro-1H-benzo[d]imidazol-1-yl)-N-methylpicolinamide], which IC50 is on record?
Answer: < 300 nM

Question: How did the IC50 turn out when Cc1c[nH]c2ncc(-n3c(=O)n(C[C@H]4CC[C@H](NC(=O)c5cc(Cl)cnc5C(F)F)CC4)c4cccnc43)cc12 [Example 474, 5-chloro-2-(difluoromethyl)-N-((1r,4r)-4-((3-(3-methyl-1H-pyrrolo[2,3-b]pyridin-5-yl)-2-oxo-2,3-dihydro-1H-imidazo[4,5-b]pyridin-1-yl)methyl)cyclohexyl)nicotinamide] was run?
Answer: < 300 nM

Question: With Cc1ncc(Cl)cc1C(=O)N[C@H]1CC[C@H](Cn2c(=O)n(-c3cccc(-n4ccnc4)c3)c3ccccc32)CC1 [Example 539, N-((1r,4r)-4-((3-(3-(1H-imidazol-1-yl)phenyl)-2-oxo-2,3-dihydro-1H-benzo[d]imidazol-1-yl)methyl)cyclohexyl)-5-chloro-2-methylnicotinamide] as the compound, how does the IC50 read?
Answer: < 300 nM

Question: Which IC50 does the source give for COCOCCn1nc(C)c2cc(-n3c(=O)n(C[C@H]4CC[C@H](NC(=O)c5cc(Cl)cnc5C)CC4)c4ccccc43)ccc21 [Example 229, 5-chloro-N-((1r,4r)-4-((3-(1-(2-(methoxymethoxy)ethyl)-3-methyl-1H-indazol-5-yl)-2-oxo-2,3-dihydro-1H-benzo[d]imidazol-1-yl)methyl)cyclo-hexyl)-2-methylnicotinamide] here?
Answer: < 300 nM

Reference: patent publication US11802120B2, “Fused cyclic urea derivatives as CRHR2 antagonist” (RaQualia Pharma Inc., priority 2018, dated 2023)
